Measurements: patent publication US20260109714A1, “PYRIMIDINE-FUSED RING COMPOUND, AND PREPARATION METHOD THEREFOR AND USE THEREOF” (GENFLEET THERAPEUTICS (SHANGHAI) INC., priority 2022, published 2026)

How the values were obtained:
[1] = tested on: AGS human gastric cancer cell line with KRAS G12D mutation; assay: Cell proliferation inhibition experiment, 3D CellTiter-Glo, AGS; format: cell-based; conditions: AGS cells, 3D spheroid, 5 days
From the text: (§1) AsPC-1 was purchased from ATCC, Article No.: CRL-1682; AGS was purchased from ATCC, Article No.: CRL-1739; RPMI1640 was purchased from Gibco, Article No.: 11875-093 2235123; F12K was purchased from Gibco, Article No.: 21127-022; FBS was purchased from Gibco, Article No.: 10099-141C; the trypsin (containing EDTA) was purchased from Gibco, Article No.: 25200-072; CellTiter Glo-3D was purchased from Progema, Article No.: G9683; the 384-well spheroid plate was purchased from Corning, Article No.: 3830; the white-bottom opaque 384-well plate was purchased from Corning, Article No.: 3570; the cell counter was purchased from CHEMOMETEC, model: NC-200; the microplate reader was purchased from PerkinElmer, model: Envison;
(§2) AsPC-1, an endogenous human pancreatic cancer cell AsPC-1 with KRAS^G12D mutation, was cultured in RPMI-1640 medium containing 10% FBS. AGS, a human gastric cancer cell line with KRAS^G12D mutation, was cultured in F-12K medium containing 10% FBS. Cells in logarithmic growth period were digested with trypsin (containing EDTA), collected and counted. 800 AsPC-1 cells/well or 400 […] were inoculated in a 384-well spheroid plate, and cultured overnight in an incubator with 5% CO2 to establish a 3D cell model. 1000× compound stock solutions with gradient concentrations of 3.16 times were prepared with DMSO, and 100-fold diluted to 10× compound stock solutions with the culture medium. The 10× compound stock solution was added to each cell culture well on the second day after cell inoculation, to give a final concentration of 1× and DMSO content of 0.1%. DMSO was used as the control, and the culture medium was used as the blank. After the compound was added, the cells were cultured for 5 days. 30 μl CellTiter-Glo working solution was added to each well, and mixed uniformly. The cells were incubated for 30 min, and allowed to stand at room temperature for 30 min. 40 μl of the mixture was transferred to a white-bottom opaque 384-well plate, and the luminescence was read on a microplate reader. The inhibition rate on cell proliferation was calculated by a formula: IR (%)=(RLU of control−RLU of compound)/(RLU of control−RLU of blank)×100%. The gradient concentrations of the compound and the corresponding inhibition rates were fitted by using XLFit four-parameter method, and the IC50 value was calculated. […] The results of some exemplary compounds are shown in Table 2 below (—means not tested).

AGS p-ERK = assay: Cell assay for p-ERK (HTRF, Advance ERK phospho-T202/Y204 kit); format: cell-based, human; conditions: AGS cells (KRAS G12D), 3 hrs with compound, inhibition of p-ERK level
Description: AGS was purchased from ATCC, Article No.: CRL-1739; F12K was purchased from Gibco, Article No.: 21127-022; FBS was purchased from Gibco, Article No.: 10099-141C; the trypsin (containing EDTA) was purchased from Gibco, Article No.: 25200-072; DMSO was purchased from VWRAMRESCO, Article No.: 0231-500ML; the 96-well cell culture plate was purchased from Corning, Article No.: 3599; the white-bottom opaque 96-well plate was purchased from Cisbio, Article No.: 66PL96025; Advance ERK phospho-T202/Y204 kit was purchased from Cisbio, Article No.: 64AERPEH; the cell counter was purchased from CHEMOMETEC, model: NC-200; the microplate reader was purchased from PerkinElmer, model: Envison.
AGS, an endogenous human gastric adenocarcinoma cell line with KRAS^G12D mutation, was cultured in F12K+10% FBS medium. On the first day of the experiment, cells in logarithmic growth period were digested with trypsin (containing EDTA), collected and counted, and about 20,000 cells/well were inoculated in a 96-well cell culture plate and cultured overnight in an incubator with 5% CO2. 1000× compound stock solutions with gradient concentrations of 3.16 times were prepared with DMSO, and 200-fold diluted to 5× compound stock solutions with the above culture medium. The 5× compound stock solution was added to each cell culture well on the second day after cell inoculation, to give a final concentration of 1× and DMSO content of 0.1%. DMSO was used as experimental control. After adding the compound, the cells were continuously cultured for 3 hrs. Then, the culture medium in the well was removed, and 50 μl/well of cell lysis buffer (from Advanced ERK phospho-T202/Y204 kit, the same hereinafter) was added, and mixed uniformly. The cells were cultured for 30 min. Then 16 μl of the mixture was transferred to a white-bottom opaque 96-well plate, and 16 μl of the cell lysis buffer was added to an additional well and used as a blank. After that, 4 μl of p-ERK HTRF antibody mixed solution (from Advanced ERK Phos Pho-T202/Y204 Kit) was added to each well. After incubation for 4 hrs, the fluorescence value (RLU) of HTRF was read on a microplate reader. The inhibition rate of the compound on p-ERK level was calculated by the formula IR (%)=(RLU of control−RLU of compound)/(RLU of control−RLU of blank)×100%. The compound concentration and the corresponding inhibition rate on p-ERK level in the cells were fitted by using Prism 8 four-parameter method, and the IC50 value was calculated.

[2] = tested on: AsPC-1 human pancreatic cancer cell with KRAS G12D mutation; assay: Cell proliferation inhibition experiment, 3D CellTiter-Glo, AsPC-1; format: cell-based; conditions: AsPC-1 cells, 3D spheroid, 5 days
From the text: as §1, §2

Row | Compound | IC50 [1] | IC50 (AGS p-ERK) | IC50 [2] | IC50 ([1]; Homo sapiens, 120 h) | IC50 (AGS p-ERK; Homo sapiens) | IC50 ([2]; Homo sapiens, ASPC1, 120 h)
1 | C=C1CCN2CCC[C@]12COc1nc2c3c(nc(-c4cc(N)cc(Cl)c4C(F)(F)F)c(F)c3n1)O[C@@H](C)[C@@H]1[C@@H]3CC[C@H](CN21)N3 [Z963, 3-chloro-5-((5S,5aS,6S,9R)-1-fluoro-5-methyl-12-(((R)-1-methylenetetrahydro-1H-pyrrolizin-7a(5H)-yl)methoxy)-5a,6,7,8,9,10-hexahydro-5H-4-oxa-3,10a,11,13,14-pentaaza-6,9-methanonaphtho[1,8-ab]heptadien-2-yl)-4-(trifluoromethyl) aniline] | 0.21 nM | 0.39 nM | 1.69 nM |  |  | 
2 | C#Cc1cccc2cc(N)c(F)c(-c3nc4c5c(nc(OCC6(CN7CCOCC7)CC6)nc5c3F)N3C[C@H]5CC[C@H](N5)[C@H]3[C@H](C)O4)c12 [Z707, 5-ethynyl-3-fluoro-4-((5S,5aS,6S,9R)-1-fluoro-5-methyl-12-((1-(morpholinemethyl)cyclopropyl)methoxy)-5a,6,7,8,9,10-hexahydro-5H-4-oxa-3,10a,11,13,14-pentaaza-6,9-methanonaphtho[1,8-ab]hepten-2-yl)naphthalen-2-amine] | 7.44 nM | 0.95 nM | 5.24 nM |  |  | 
3 | C#Cc1cccc2cc(N)cc(-c3nc4c5c(nc(OC[C@@]67CCCN6CCC7=C(F)F)nc5c3F)N3C[C@H]5CC[C@H](N5)[C@H]3[C@H](C)O4)c12 (single isomer, unassigned) [Z960] |  |  |  | 3.96 nM | 0.25 nM | 1.58 nM
4 | C#Cc1cccc2cc(N)cc(-c3nc4c5c(nc(OCC6(CN7CCC(=C(F)F)C7)CC6)nc5c3F)N3C[C@H]5CC[C@H](N5)[C@H]3[C@H](C)O4)c12 [Z744] |  |  |  | 2.86 nM | 0.51 nM | 1.99 nM
5 | C#Cc1c(F)ccc2cccc(-c3nc4c5c(nc(OC[C@]67CCCN6CCC7=C)nc5c3F)N3C[C@H]5CC[C@H](N5)[C@H]3[C@@H](C(F)F)O4)c12 [Z736, (5S,5aS,6S,9R)-5-(difluoromethyl)-2-(8-ethynyl-7-fluoronaphthalen-1-yl)-1-fluoro-12-(((R)-1-methylenetetrahydro-1H-pyrrolizin-7a(5H)-yl)methoxy)-5a,6,7,8,9,10-hexahydro-5H-4-oxa-3,10a,11,13,14-pentaaza-6,9-methanonaphtho[1,8-ab]heptene] |  |  |  | 389 nM |  | 254 nM
6 | C=C1CN2CCCC2(COc2nc3c4c(nc(-c5cccc6cccc(Cl)c56)c(F)c4n2)OC(CC)[C@@H]2[C@@H]4CC[C@H](CN32)N4)C1 (stereo partly drawn) [Z596, (5S,5aS,6S,9R)-2-(8-chloronaphthalen-1-yl)-5-ethyl-1-fluoro-12-((2-methylenetetrahydro-1H-pyrrolizin-7a(5H)-yl)methoxy)-5a,6,7,8,9,10-hexahydro-5H-4-oxy-3,10a,11,13,14-pentaaza-6,9-methanonaphtho[1,8-ab]heptene] |  |  |  | 268 nM |  | 411 nM
7 | 6-((5S,5aS,6S,9R)-12-(((R)-1-(difluoromethylene)tetrahydro-1H-pyrrolizin-7a(5H)-yl)methoxy)-1-fluoro-5-(methyl-d3)-5a,6,7,8,9,10-hexahydro-5H-4-oxa-3,10a,11,13,14-pentaaza-6,9-methanonaphtho[1,8-ab]hepten-2-yl)-4-methyl-5-(trifluoromethyl)pyridine-2-amine [Z1295] |  | 13.9 nM |  |  |  | 
8 | [2H]C([2H])([2H])[C@@H]1Oc2nc(-c3cc(N)cc(Cl)c3C(F)(F)F)c(F)c3nc(OC[C@]45CCCN4CCC5=C(F)F)nc(c23)N2C[C@H]3CC[C@H](N3)[C@@H]12 [Z1072, 3-chloro-5-((5S,5aS,6S,9R)-12-(((R)-1-(difluoromethylene)tetrahydro-1H-pyrrolizin-7a(5H)-yl)methoxy)-1-fluoro-5-(methyl-d3)-5a,6,7,8,9,10-hexahydro-5H-4-oxo-3,10a,11,13,14-pentaaza-6,9-methanonaphtho[1,8-ab]hepten-2-yl)-4-(trifluoromethyl) aniline] |  |  |  | 0.5 nM |  | 2.26 nM
9 | C#Cc1c(F)ccc2cccc(-c3nc4c5c(nc(OC[C@]67CCCN6CCC7=C)nc5c3F)N3C[C@H]5CC[C@H](N5)[C@H]3[C@H](C)O4)c12 [Z639, (5S,5aS,6S,9R)-2-(8-ethynyl-7-fluoronaphthalen-1-yl)-1-fluoro-5-methyl-12-(((R)-1-methylenetetrahydro-1H-pyrrolizin-7a(5H)-yl)methoxy)-5a,6,7,8,9,10-hexahydro-5H-4-oxa-3,10a,11,13,14-pentaaza-6,9-methanonaphtho[1,8-ab]heptene] | 113 nM | 33.4 nM | 93.7 nM |  |  | 
10 | C[C@@H]1Oc2nc(-c3cc(N)cc4ccc(F)c(F)c34)c(F)c3nc(OC[C@]45CCCN4CC(F)(F)C5)nc(c23)N2C[C@H]3CC[C@H](N3)[C@@H]12 [Z740, 4-((5S,5aS,6S,9R)-12-(((R)-2,2-difluorotetrahydro-1H-pyrrolizin-7a(5H)-yl)methoxy)-1-fluoro-5-methyl-5a,6,7,8,9,10-hexahydro-5H-4-oxa-3,10a,11,13,14-pentaaza-6,9-methanonaphtho[1,8-ab]heptan-2-yl)-5,6-difluoronaphthalen-2-amine] |  |  |  | 18 nM | 6.08 nM | 26 nM
11 | C#Cc1c(F)ccc2cccc(-c3nc4c5c(nc(OC[C@]67C[C@@H](F)CN6CCC7=C)nc5c3F)N3C[C@H]5CC[C@H](N5)[C@H]3[C@H](C)O4)c12 [Z689, (5S,5aS,6S,9R)-2-(8-ethynyl-7-fluoronaphthalen-1-yl)-1-fluoro-12-(((6R,7aR)-6-fluoro-1-methylenetetrahydro-1H-pyrrolizin-7a(5H)-yl)methoxy)-5-methyl-5a,6,7,8,9,10-hexahydro-5H-4-oxa-3,10a,11,13,14-pentaaza-6,9-methanonaphtho[1,8-ab]heptene] | 19.3 nM | 6.61 nM | 17.4 nM |  |  | 
12 | C#Cc1c(F)ccc2cccc(-c3nc4c5c(nc(OC[C@]67CCCN6CCC7=C)nc5c3F)N3C[C@H]5CC[C@H](N5)[C@H]3C(CF)O4)c12 (stereo partly drawn) [Z746, (5aS,6S,9R)-2-(8-ethynyl-7-fluoronaphthalen-1-yl)-1-fluoro-5-(fluoromethyl)-12-(((R)-1-methylenetetrahydro-1H-pyrrolizin-7a(5H)-yl)methoxy)-5a,6,7,8,9,10-hexahydro-5H-4-oxa-3,10a,11,13,14-pentaaza-6,9-methanonaphtho[1,8-ab]heptene] |  |  |  |  | 17.1 nM | 
13 | C#Cc1cccc2cc(N)cc(-c3nc4c5c(nc(OCC67CCCN6CC(=C(F)F)C7)nc5c3F)N3C[C@H]5CC[C@H](N5)[C@H]3[C@H](C)O4)c12 (stereo partly drawn) [Z747] |  |  |  |  | 0.37 nM | 
